The source of these data is patent publication US9718792B2, “Isoxazoline hydroxamic acid derivatives as LpxC inhibitors” (priority 2014, dated 2017).

In general, IC50 refers to the point on the concentration scale where inhibition reaches its midpoint. The term MIC denotes the lowest concentration that inhibits growth of the organism.

Converted amounts (≈) assume the structure as drawn.

The target of test [1] is P. aeruginosa LpxC (Pseudomonas aeruginosa (strain ATCC 15692 / DSM 22644 / CIP 104116 / JCM 14847 / LMG 12228 / 1C / PRS 101 / PAO1), UniProt P47205). The test can be described thus: P. aeruginosa LpxC Inhibition Assay. Format: biochemical. The settings on record: 1 nM P. aeruginosa LpxC, 2 μM substrate, LC-MS/MS; read-out: PA LpxC IC50. In outline:
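Compounds pre-incubated 30 min at room temperature with 1 nM LpxC, then 2 μM UDP-3-O-(R-3-hydroxydecanoyl)-GlcNAc added; 20 min reaction in 50 mM sodium phosphate pH 7.5, 0.005% Triton X-100, quenched with HOAc. Product quantified by LC-MS/MS against calibration curve; IC50 from four-parameter logistic fit.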

For test [2], the system named is P. aeruginosa PAO1. The test can be described thus: Susceptibility Testing (MIC, broth microdilution). The settings on record: P. aeruginosa PAO1, broth microdilution, 20 hours; for MIC: Pseudomonas aeruginosa, PAO1, 20 h, read-out: PAO1 MIC. The test is classed as cell-based, Pseudomonas aeruginosa. In outline:
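Broth microdilution per CLSI in cation-adjusted Mueller-Hinton broth, inoculum ~5×10^5 CFU/mL, two-fold compound dilutions (1% DMSO final). Plates incubated 20 h in ambient air at 35° C. MIC is the lowest concentration preventing visible growth, confirmed by OD 600 nm reading.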
On the technique in general: In broth dilution the organism is exposed to a series of concentrations in liquid medium.

On to `C[C@@H](O)Cc1ccc(-c2c(F)cc(C3=NO[C@@H](C[C@](C)(C(=O)NO)S(C)(=O)=O)C3)cc2F)cc1` [Compound 122, (R)-3-((R)-3-(2,6-difluoro-4′-((R)-2-hydroxypropyl)-[1,1′-biphenyl]-4-yl)-4,5-dihydroisoxazol-5-yl)-N-hydroxy-2-methyl-2-(methylsulfonyl)propanamide], for which the IC50 in test [1] was less than 0.5 nM. For the same compound, the MIC in test [2] was 0.5 µg/mL (≈ 1.01 µM).
In the same order, the values of `CC#Cc1ccc(C2=NO[C@@H](C[C@](C)(C(=O)NO)S(C)(=O)=O)C2)c(F)c1` [Compound 123, (R)-3-((R)-3-(2-fluoro-4-(prop-1-yn-1-yl)phenyl)-4,5-dihydroisoxazol-5-yl)-N-hydroxy-2-methyl-2-(methylsulfonyl)propanamide] are less than 0.5 nM and 0.25 µg/mL (≈ 0.654 µM).
With “(R)-3-((R)-3-(2-fluoro-4′-((R)-2-hydroxypropyl)-[1,1′-biphenyl]-4-yl)-4,5-dihydroisoxazol-5-yl)-N-hydroxy-2-methyl-2-(methylsulfonyl)propanamide [Compound 107]”, the IC50 in test [1] came out at 0.5 nM. The “PAO1 MIC” value in test [2] came out at 0.25 µg/mL.
